# Patent publication EP2839831A1, “Modulators of the unconventional secretory pathway for use in the treatment of Alexander disease” (Rheinische Friedrich-Wilhelms-Universität Bonn, priority 2013, dated 2015)
# Tested on: secretion of endogenous insulin-degrading enzyme (IDE)
# Test: Secretion assay: effect of lovastatin on IDE secretion in COS-7 cells transfected with GFAP-ΔEx4 (Western immunoblot, ratio of IDE in medium to IDE in lysates)
# Format: cell-based, monkey
# Conditions: Primates, 5 µM lovastatin for 15 hours, 36 hours post transfection, versus DMSO vehicle, read-out: increase of IDE secretion (ratio of IDE in the medium to IDE in the lysates) compared to GFAP-ΔEx4
# Description: COS-7 cells, a fibroblast-like cell line from monkey kidney tissue (ATCC, USA), were cultured in Dulbecco's Modified Eagle Medium (DMEM) (Life Technologies) containing 10% Fetal calf serum (FCS) (Life Technologies) and 1% Penicillin/Streptomycin (PS) (Life Technologies) (DMEM +/+) and splitted into new dishes (Coming). For all experiments cells were counted by using a Neubauer counting chamber. To estimate cell number (cells/ml), the average number from four big squares of the Neubauer chamber was multiplied by 10'000 and the cell suspension was diluted to the desired cell concentration. […]
# The effect of statins on the secretion of IDE disturbed by Alexander disease-causing mutation in the 2A rod region of GFAP was determined by cell transfection and pharmacological treatment in COS-7 cells.
# Cells were seeded in 6 well plates day before the transfection to a 50% confluence in DMEM medium supplemented with 10% FCS/1% PS. […] Proteins were separated by sodium dodecyl sulfate-polyacrylamide gel electrophoresis (SDS-PAGE), transferred to nitrocellulose membranes (Whatman), and detected by Western immunoblotting using enhanced chemiluminescence detection (ChemiDoc XRS, Bio-Rad). Signals were quantified with Quantity One Software (Bio-Rad).
smiles,measurement,value
"CC[C@H](C)C(=O)O[C@H]1C[C@@H](C)C=C2C=C[C@H](C)[C@H](CC[C@@H]3C[C@@H](O)CC(=O)O3)[C@H]21 [lovastatin, [(1S,3R,7S,8S,8aR)-8-[2-[(2R,4R)-4-hydroxy-6-oxooxan-2-yl]ethyl]-3,7-dimethyl-1,2,3,7,8,8a-hexahydronaphthalen-1-yl] (2S)-2-methylbutanoate]",activation at 5 µM,~100%
